Entries after “also recorded” stand apart in the source; their conditions may differ.
Experiments:
[1] = Phase I dose escalation trial of Compound 1 in NHL (NCT03328078): safety and tolerance; format: in vivo, human
Description: (§5) Seven dosing cohorts included 50 and 100 mg QD, and 50, 100, 200, 300, or 400 mg BID of daily continuous oral monotherapy in 21-Day cycles. Objective included safety and tolerance (primary), pk/pd and early efficacy (secondary), and biomarker correlations (exploratory). 31 patients with resistant or refractory, advanced NHL have been enrolled.

[2] = tested on: resistant or refractory, advanced NHL; test: Phase I dose escalation trial of Compound 1 in NHL (NCT03328078): tumor response; format: in vivo, human; conditions: patient with DLBCL-GCB; initial dose 200 mg bid, final dose 300 mg bid
Description: as §5

[3] = tested on: Waldenstrom's macroglobulinemia (WM); test: WM patient case on Compound 1 with intra-patient dose escalation: IgM, m-protein, response; format: in vivo, human
Description: The patient remained asymptomatic for over 4 years with a slow increase in m-protein and IgM during that time. By mid-2017 they started to experience increased fatigue. […] There was no evidence of CXCR4 genomic alteration. […] Several options were discussed including clinical trials and standard of care Bruton's tyrosine kinase inhibitor (BTKi) therapy.
Baseline testing in December 2018 included a bone marrow biopsy showing 5-10% involvement by WM, m-protein of 1.66 g/dL, IgM 2,801 mg/dL, and a computed tomography scan without pathological lymphadenopathy or hepatosplenomegaly. Quantitative immunoglobulins and serum protein electrophoresis were obtained each cycle to determine response to treatment (FIG. 1).
The patient initiated treatment at the first dose level, 50 mg. […] Using a standard 3+3 design the subsequent dose level, 100 mg po BID, was cleared per protocol. Considering evidence of response without noted toxicity, the patient was a candidate to escalate to 100 mg po BID starting with cycle 7 day 1 in April 2019. […] They reported a significant improvement in their quality of life with resolution of fatigue and returned to a rigorous daily exercise program that they had been unable to perform for the last 2 years due to WM-related symptoms. […]

[4] = Oral pharmacokinetics of Compound 1 in humans (FIG. 7); format: in vivo, human
From the text: In summary, the oral pharmacokinetics of Compound 1 are desirable.

[5] = tested on: NF-κB p-p50; test: Immunohistochemistry of NF-κB p-p50 in tumor biopsies of NHL patients treated with Compound 1; format: in vivo, human; conditions: paired biopsies before and after/during treatment with Compound 1 (3 cases)
Description: Formalin-fixed, paraffin-embedded sections of human tonsil and lymphoma were used. Tissue sections (5 μm) were deparaffinized, and antigen retrieval was carried out at 90-100° C. in citrate buffer for 10-40 min. The sections were incubated in 1% […] for 10 minutes to quench endogenous tissue peroxidase. Tissue sections were then incubated with primary NF-κB p-p50-specific antibody for 1 hour at room temperature. The primary NF-κB p-p50-specific antibody used NF-κB p-p50 (S337), sc-271908 from Santa Cruz Biotechnology. The slides were stained using a standard EnVision+System-HRP kit (DAKO, Carpinteria, CA) according to the manufacture's protocol. Immunohistochemical reactions were developed with diaminobenzidine as the chromogenic peroxidase substrate, and slides were counterstained with hematoxylin. Negative control samples included replacement of the primary antibody with nonimmune IgG1 (Dako).
Specifically, nuclear and/or cytoplasmic expression of NF-kappaB p-p50 was found in all 6 SD cases treated with 50 mg QD (2 cases, tumor regression), 50 mg BID (1 case), 200 BID (1 case, tumor regression) and 400 BID (2 cases). Expression of NF-kappaB p-p50 was not detected in 7 of 8 cases with PD including patients treated with 50 mg QD (1 case), 100 mg QD (1 case), 100 mg BID (3 cases), 200 mg BID (1 case) and 400 BID (1 case). […]

[6] = tested on: NF-kB p-p50 S337 in OCL-LY10 cells; test: Western blot of NF-kB p-p50 S337 in OCL-LY10 cells; format: cell-based; conditions: 3 μM and 10 μM, 48 h, vs DMSO
Description: (§1) At 48 h post-treatment, cell lysates were obtained. Protein sample concentration was quantified and equal amount 20 μg of whole protein extract was loaded in each well of SDS-polyacrylamide gel. Cell extracts were separated by 10% SDS-PAGE, transferred to nitrocellulose membrane, and probed as indicated. The following antibodies were used for immunoblot analysis: NF-kB p-p50 S337 (Santa Cruz Biotechnology) and b-actin (Cell Signaling Technology).

[7] = tested on: NF-kB p-p50 S337 in TF-1 cells; test: Western blot of NF-kB p-p50 S337 in TF-1 (AML) cells; format: cell-based; conditions: TF-1 cells (AML cells, FIG. 13B), 3 μM and 10 μM, 48 h, vs DMSO
Description: as §1

[8] = Phase 1 study of Compound 1 in AML or high risk MDS (NCT04278768): safety; format: in vivo; conditions: Cohort 1, 200 mg BID
Description: (§2) This study will be conducted in 2 parts: an initial dose escalation and dose expansion phase. […] Three patients with AML or MDS will be enrolled at the designated dose. If none of the first 3 patients experience a DLT during the first cycle, patients may be enrolled into the next higher dose level of 300 mg bid until a safe and effective RP2D is established.
(§3) This study is expected to enroll approximately 18 patients to establish the initial RP2D.
(§4) The major study inclusion and exclusion criteria are as follows: Relapsed or refractory AML (primary or secondary, including treatment-related) after at least one standard treatment (including chemotherapy, re-induction therapy or stem cell transplantation) based on the assessment of the investigator or high/very high risk relapsed/refractory MDS (IPSS-R criteria), following at least 6 cycles of hypomethylating agents [HMA] or evidence of early progression.

[9] = tested on: AML or high risk MDS; test: Phase 1 study of Compound 1 in AML or high risk MDS (NCT04278768): marrow response; format: in vivo, human; conditions: initial patients, 200 or 300 mg BID
Description: as §2, §3, §4

[10] = tested on: Waldenstrom's macroglobulinemia (WM); test: Prior therapies of the WM patient (case history); format: in vivo, human

Cc1cc(-c2nc(C(=O)Nc3cc4oc(N5CCOCC5)nc4nc3N3CC[C@@H](O)C3)co2)ccn1 [Compound 1]
Anemia, All Grades, [E] ([1]; 200 mg BID, N = 5): [1]
Neutropenia, All Grades, [E] ([1]; 200 mg BID, N = 5): [3]
Neutropenia, Grade 3 or Higher, [E] ([1]; 200 mg BID, N = 5): [2]
Anemia, All Grades, [E] ([1]; 300 mg BID, N = 6): [3]
Neutropenia, All Grades, [E] ([1]; 300 mg BID, N = 6): [5]
Neutropenia, Grade 3 or Higher, [E] ([1]; 300 mg BID, N = 6): [1]
Anemia, All Grades, [E] ([1]; 400 mg BID, N = 8): [1]
Anemia, Grade 3 or Higher, [E] ([1]; 400 mg BID, N = 8): [1]
Neutropenia, All Grades, [E] ([1]; 400 mg BID, N = 8): [3]
Thrombocytopenia, All Grades, [E] ([1]; 400 mg BID, N = 8): [2]
Thrombocytopenia, Grade 3 or Higher, [E] ([1]; 400 mg BID, N = 8): [2]
tolerability overall ([1]; 31 NHL patients, 50 mg QD to 400 mg BID): well tolerated; also recorded: good safety and tolerance
creatine phosphokinase (CPK/CK) elevation ([1]; WM patient, 200 mg po BID, asymptomatic, resolved with exercise moderation): grade 2
tolerability ([1]; WM patient, first dose level, 50 mg): tolerated therapy well without adverse events
Tumor Reduction [2]: 35%
fatigue ([3]; 200 mg po BID, by the summer of 2019): completely resolved
response ([3]; cycles 7 and 8, 100 mg po BID): stable disease
half-life ([4]; human, plasma, oral administration): ~6 h
accumulation at steady state ([4]; multiple daily twice dose administration): Moderate accumulation
time of maximum plasma concentrations post dose ([4]; oral administration): 0.5 to 8 h
NF-κB phospho-p50 expression in tumor biopsies [5]: significant downregulation; also recorded: inhibited
expression of NF-kB p-p50 S337 (Western blot) [6]: downregulated
expression of NF-kB p-p50 S337 (Western blot) [7]: downregulated
DLT 1st cycle ([8]; 3 patients with hr-MDS): No DLT
dose reductions for Gr. 3 dizziness ([8]; C2): 1
marrow response [9]: several marrow complete responses

rituximab
response ([10]; induction 375 mg/m^2 IV weekly for 8 weeks then maintenance, 2005-2007): very good partial remission
IgM ([10]; retreatment 2011, numeric increase from 1476): 2042 mg/dL
response ([10]; retreatment June-September 2011): stable disease

Source: patent US20230414582A1, “METHODS OF TREATING DISEASES AND DISORDERS” (Curis, Inc., priority 2020, published 2023)
